# Experimental data taken from patent US10206907B2, “Compounds useful for the treatment of degenerative and inflammatory diseases” (GALAPAGOS NV, priority 2008, dated 2019).
# Like-named read-outs stand apart in the source and are kept apart here.
# How the values were obtained:
# [1] = target: Recombinant human TYK2 catalytic domain (Homo sapiens (Human), UniProt P29597); assay: TYK2 inhibition assay; type: biochemical; settings: semi-quantitative score
# Method: After 90 min at 30° C., reactions were stopped by adding of 25 μL/well of 150 mM phosphoric acid. […] Plates were washed 6 times with 300 μL per well of a 75 mM phosphoric acid solution and the bottom of the plates was sealed. 40 μL/well of Microscint-20 was added, the top of the plates was sealed and readout was performed using the Topcount (Perkin Elmer). Kinase activity was calculated by subtracting counts per minute (cpm) obtained in the presence of a positive control inhibitor (10 μM staurosporine) from cpm obtained in the presence of vehicle. The ability of a test compound to inhibit this activity was determined as: Percentage inhibition=((cpm determined for sample with test compound present−cpm determined for sample with positive control inhibitor) divided by (cpm determined in the presence of vehicle−cpm determined for sample with positive control inhibitor))*100%.
# Dose dilution series were prepared for the compounds enabling the testing of dose-response effects in the TYK2 assay and the calculation of the IC50 for each compound.
# MMP13 in SW1353 cells = assay: OSM/IL-1β signaling assay (MMP13 levels in SW1353 cells); type: cell-based; settings: Homo sapiens; SW1353 cells, OSM and IL-1β triggered, MMP13 levels 48 hours after triggering; read-out: MMP13 EC50;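 further: secreted MMP13 captured by antibody, activated with APMA and its activity read by fluorescence, inhibition scaled between vehicle-treated triggered wells (0%) and untriggered wells (100%)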
# [2] = Microsomal stability, rat liver microsomes; type: in vitro ADME; settings: percentage of compound remaining after 60 minutes, 3 μM compound
# Method in brief: (§1)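 Percent parent remaining after 60 min was determined by LCMS against a time-zero sample quenched before microsome addition. Incubations ran at 37°C with liver microsomes and a G6PDH-based NADPH-regenerating cofactor mix. Quench was MeOH or ACN (1:1).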
# [3] = target: Recombinant human JAK2 catalytic domain (Homo sapiens (Human), UniProt O60674); assay: JAK2 inhibition assay; type: biochemical; settings: semi-quantitative score
# Method in brief: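 Activity was taken as vehicle cpm minus cpm with 10 μM staurosporine, and inhibition was expressed on that scale. Incubation was 90 min at 30 °C, followed by acid quench, phosphoric acid washes and Microscint counting. Compounds were tested as dose series to obtain IC50.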
# [4] = Microsomal stability, human liver microsomes; type: in vitro ADME; settings: percentage of compound remaining after 60 minutes, 3 μM compound
# Method in brief: as §1
# [5] = Caco2 permeability (bi-directional); type: in vitro ADME, human; settings: human, pH 7.4; for Papp A→B at 1 h, 10 µM: Caco-2, apical to basolateral, read-out: Papp (A2B); for efflux ratio at 1 h, 10 µM: Caco-2, ratio of PappB>A/PappA>B
# Method in brief: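 Compound concentrations in both chambers were measured by LC-MS/MS after 1 h incubation at 37 °C on an orbital shaker. Efflux ratio is PappB>A over PappA>B. Lucifer Yellow (50 μM in donor) confirmed layer integrity, with permeability of ≤100 nm/s required.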
# [6] = tested on: JAK-STAT signalling in HeLa cells; assay: JAK-STAT signalling assay (OSM-triggered pSTAT1(2)-luciferase reporter in HeLa cells); type: cell-based; settings: Homo sapiens; HeLa cells, OSM-triggered pSTAT1(2)-luciferase reporter; read-out: STAT signalling EC50
# Method in brief: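 Read-out is oncostatin M–driven pSTAT1(2)-luciferase activity, corrected by co-transfected LacZ β-galactosidase, in transiently transfected HeLa cells cultured overnight at 37 °C, 10% CO2. Inhibition percentages against positive and negative controls were plotted across doses to derive EC50.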
# [7] = target: Recombinant human JAK1 catalytic domain (Homo sapiens (Human), UniProt P23458); assay: JAK1 inhibition assay; type: biochemical
# Method in brief: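 IC50 values come from dose-response series, with each point expressed as percent inhibition of cpm. Vehicle sets full activity and 10 μM staurosporine sets background. Incorporated radioactivity counted by scintillation after washing with 75 mM phosphoric acid.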
# [8] = target: Recombinant human JAK3 catalytic domain (Homo sapiens (Human), UniProt P52333); assay: JAK3 inhibition assay; type: biochemical; settings: semi-quantitative score
# Chain of Recombinant human JAK3 catalytic domain (P52333 781-1124): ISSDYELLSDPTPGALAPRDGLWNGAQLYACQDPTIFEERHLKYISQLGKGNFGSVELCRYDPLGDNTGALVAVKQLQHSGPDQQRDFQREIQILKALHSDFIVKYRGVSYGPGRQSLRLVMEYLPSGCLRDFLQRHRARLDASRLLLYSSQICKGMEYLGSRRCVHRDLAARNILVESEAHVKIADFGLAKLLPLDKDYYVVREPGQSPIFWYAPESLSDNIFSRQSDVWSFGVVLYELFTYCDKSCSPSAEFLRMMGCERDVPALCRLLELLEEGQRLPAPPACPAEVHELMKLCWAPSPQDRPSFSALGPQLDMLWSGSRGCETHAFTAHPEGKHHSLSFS
# Chain of Recombinant human TYK2 catalytic domain (P29597 871-1187): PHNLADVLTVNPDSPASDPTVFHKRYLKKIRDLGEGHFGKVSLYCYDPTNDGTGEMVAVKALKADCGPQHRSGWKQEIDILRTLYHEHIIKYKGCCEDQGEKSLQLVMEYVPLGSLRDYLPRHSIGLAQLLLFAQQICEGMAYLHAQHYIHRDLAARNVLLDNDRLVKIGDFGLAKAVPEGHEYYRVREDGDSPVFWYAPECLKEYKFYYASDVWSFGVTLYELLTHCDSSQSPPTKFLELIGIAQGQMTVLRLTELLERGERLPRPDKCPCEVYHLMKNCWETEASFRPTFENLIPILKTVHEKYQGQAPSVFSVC
# Chain of Recombinant human JAK2 catalytic domain (O60674 808-1132): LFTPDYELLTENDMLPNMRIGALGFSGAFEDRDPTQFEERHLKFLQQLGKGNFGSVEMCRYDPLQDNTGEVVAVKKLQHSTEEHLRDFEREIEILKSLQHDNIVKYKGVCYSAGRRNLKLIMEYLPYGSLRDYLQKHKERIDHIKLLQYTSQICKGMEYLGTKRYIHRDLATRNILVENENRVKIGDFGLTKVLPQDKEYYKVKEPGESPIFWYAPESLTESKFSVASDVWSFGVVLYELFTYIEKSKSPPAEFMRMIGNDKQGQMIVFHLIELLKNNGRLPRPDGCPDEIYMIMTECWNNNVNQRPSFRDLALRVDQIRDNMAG
# Chain of Recombinant human JAK1 catalytic domain (P23458 850-1154): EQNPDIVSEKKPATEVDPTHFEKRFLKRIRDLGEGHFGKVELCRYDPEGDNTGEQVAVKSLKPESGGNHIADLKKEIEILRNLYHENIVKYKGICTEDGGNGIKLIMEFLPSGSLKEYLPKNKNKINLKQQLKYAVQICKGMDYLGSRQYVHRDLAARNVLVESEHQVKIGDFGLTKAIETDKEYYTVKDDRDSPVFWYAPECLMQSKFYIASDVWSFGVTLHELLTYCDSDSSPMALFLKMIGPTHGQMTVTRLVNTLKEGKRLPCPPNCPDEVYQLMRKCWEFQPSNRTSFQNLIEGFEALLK
smiles,measurement,setting,value
"O=C(Nc1nc2cccc(-c3ccc(S(=O)(=O)NC4CC4)cc3)n2n1)C1CC1 [Compound 13, N-(5-(4-(N-cyclopropylsulfamoyl)phenyl)-[1,2,4]triazolo[1,5-a]pyridin-2-yl)cyclopropanecarboxamide]",IC50,[1],501 to 1000 nM
same,EC50,MMP13 in SW1353 cells,> 1000 nM
same,Microsomal Stability Rat (%),[2],**** (**** 76-100)
same,IC50,[3],< 100 nM
same,Microsomal Stability Human (%),[4],*** (*** 51-75)
same,"Papp A→B at 1 h, 10 µM",[5],3.03 ×10⁻⁶ cm/s
same,"efflux ratio at 1 h, 10 µM",[5],11.9
same,EC50,[6],> 1000 nM
same,IC50,[7]; semi-quantitative score,< 100 nM
same,IC50,[8],> 1000 nM
"O=C(Nc1nc2cccc(-c3ccc(OCc4ccccc4)c(F)c3)n2n1)C1CC1 [Compound 15, N-(5-(4-(benzyloxy)-3-fluorophenyl)-[1,2,4]triazolo[1,5-a]pyridin-2-yl)cyclopropanecarboxamide]",IC50,[1],> 1000 nM
same,EC50,MMP13 in SW1353 cells,> 1000 nM
same,Microsomal Stability Rat (%),[2],* (* 0-25)
same,IC50,[3],< 100 nM
same,Microsomal Stability Human (%),[4],** (** 26-50)
same,"efflux ratio at 1 h, 10 µM",[5],0.91
same,EC50,[6],101 to 500 nM
same,IC50,[7]; semi-quantitative score,< 100 nM
same,IC50,[8],101 to 500 nM
O=C(Nc1nc2cccc(-c3ccc(C(=O)N4CCCCC4)cc3)n2n1)C1CC1 [Compound 17],IC50,[1],501 to 1000 nM
same,EC50,MMP13 in SW1353 cells,> 1000 nM
same,Microsomal Stability Rat (%),[2],** (** 26-50)
same,IC50,[3],101 to 500 nM
same,Microsomal Stability Human (%),[4],**** (**** 76-100)
same,"Papp A→B at 1 h, 10 µM",[5],11.4 ×10⁻⁶ cm/s
same,"efflux ratio at 1 h, 10 µM",[5],2.97
same,EC50,[6],> 1000 nM
same,IC50,[7]; semi-quantitative score,< 100 nM
same,IC50,[8],> 1000 nM
"O=C(Nc1nc2cccc(-c3ccc(OC4CCCC4)cc3)n2n1)C1CC1 [Compound 40, N-(5-(4-(cyclopentyloxy)phenyl)-[1,2,4]triazolo[1,5-a]pyridin-2-yl)cyclopropanecarboxamide]",IC50,[1],501 to 1000 nM
same,EC50,MMP13 in SW1353 cells,1 to 500 nM
same,Microsomal Stability Rat (%),[2],* (* 0-25)
same,IC50,[3],< 100 nM
same,Microsomal Stability Human (%),[4],* (* 0-25)
same,"Papp A→B at 1 h, 10 µM",[5],44.9 ×10⁻⁶ cm/s
same,"efflux ratio at 1 h, 10 µM",[5],0.67
same,EC50,[6],101 to 500 nM
same,IC50,[7]; semi-quantitative score,< 100 nM
same,IC50,[8],501 to 1000 nM
Cn1ccc(COc2ccc(-c3cccc4nc(NC(=O)C5CC5)nn34)cc2)n1 [Compound 48],IC50,[1],> 1000 nM
same,EC50,MMP13 in SW1353 cells,> 1000 nM
same,Microsomal Stability Rat (%),[2],*** (*** 51-75)
same,IC50,[3],101 to 500 nM
same,Microsomal Stability Human (%),[4],*** (*** 51-75)
same,"Papp A→B at 1 h, 10 µM",[5],28.8 ×10⁻⁶ cm/s
same,"efflux ratio at 1 h, 10 µM",[5],1
same,EC50,[6],> 1000 nM
same,IC50,[7]; semi-quantitative score,< 100 nM
same,IC50,[8],> 1000 nM
Cc1n[nH]c(C)c1CCOc1ccc(-c2cccc3nc(NC(=O)C4CC4)nn23)cc1 [Compound 51],IC50,[1],501 to 1000 nM
same,EC50,MMP13 in SW1353 cells,> 1000 nM
same,Microsomal Stability Rat (%),[2],* (* 0-25)
same,IC50,[3],< 100 nM
same,Microsomal Stability Human (%),[4],* (* 0-25)
same,"Papp A→B at 1 h, 10 µM",[5],10.9 ×10⁻⁶ cm/s
same,"efflux ratio at 1 h, 10 µM",[5],3.64
same,EC50,[6],101 to 500 nM
same,IC50,[7]; semi-quantitative score,< 100 nM
same,IC50,[8],501 to 1000 nM
"O=C(CCc1ccccc1)Nc1ccc(-c2cccc3nc(NC(=O)C4CC4)nn23)cc1 [Compound 109, N-(5-(4-(3-phenylpropanamido)phenyl)-[1,2,4]triazolo[1,5-a]pyridin-2-yl)cyclopropanecarboxamide]",IC50,[1],> 1000 nM
same,EC50,MMP13 in SW1353 cells,501 to 1000 nM
same,Microsomal Stability Rat (%),[2],* (* 0-25)
same,IC50,[3],< 100 nM
same,Microsomal Stability Human (%),[4],* (* 0-25)
same,"Papp A→B at 1 h, 10 µM",[5],19 ×10⁻⁶ cm/s
same,"efflux ratio at 1 h, 10 µM",[5],2.5
same,EC50,[6],501 to 1000 nM
same,IC50,[7]; semi-quantitative score,< 100 nM
same,IC50,[8],501 to 1000 nM
"O=C(NCCc1ccccc1)c1ccc(-c2cccc3nc(NC(=O)C4CC4)nn23)c(F)c1 [Compound 111, 4-(2-(cyclopropanecarboxamido)-[1,2,4]triazolo[1,5-a]pyridin-5-yl)-3-fluoro-N-phenethylbenzamide]",IC50,[1],> 1000 nM
same,EC50,MMP13 in SW1353 cells,> 1000 nM
same,Microsomal Stability Rat (%),[2],** (** 26-50)
same,IC50,[3],101 to 500 nM
same,Microsomal Stability Human (%),[4],** (** 26-50)
same,"Papp A→B at 1 h, 10 µM",[5],8.23 ×10⁻⁶ cm/s
same,"efflux ratio at 1 h, 10 µM",[5],2.9
same,EC50,[6],501 to 1000 nM
same,IC50,[7]; semi-quantitative score,< 100 nM
same,IC50,[8],501 to 1000 nM
"O=C(N[C@H]1CCN(Cc2ccccc2)C1)c1ccc(-c2cccc3nc(NC(=O)C4CC4)nn23)cc1 [Compound 119, (S)-N-(1-benzylpyrrolidin-3-yl)-4-(2-(cyclopropanecarboxamido)-[1,2,4]triazolo[1,5-a]pyridin-5-yl)benzamide]",IC50,[1],> 1000 nM
same,EC50,MMP13 in SW1353 cells,> 1000 nM
same,Microsomal Stability Rat (%),[2],** (** 26-50)
same,IC50,[3],101 to 500 nM
same,Microsomal Stability Human (%),[4],* (* 0-25)
same,EC50,[6],> 1000 nM
same,IC50,[7]; semi-quantitative score,< 100 nM
same,IC50,[8],> 1000 nM
"O=C(Nc1nc2cccc(-c3ccc4c(ccn4Cc4ccccc4)c3)n2n1)C1CC1 [Compound 121, Cyclopropanecarboxylic Acid [5-(1-benzyl-1H-indol-5-yl)-[1,2,4]triazolo[1,5-a]pyridin-2-yl]-amide]",IC50,[1],> 1000 nM
same,EC50,MMP13 in SW1353 cells,> 1000 nM
same,Microsomal Stability Rat (%),[2],* (* 0-25)
same,IC50,[3],< 100 nM
same,Microsomal Stability Human (%),[4],* (* 0-25)
same,EC50,[6],501 to 1000 nM
same,IC50,[7]; semi-quantitative score,< 100 nM
same,IC50,[8],501 to 1000 nM
"O=C(Nc1nc2cccc(-c3ccc(C(=O)N4CCC(O)(Cc5ccccc5)CC4)cc3)n2n1)C1CC1 [Compound 156, N-(5-(4-(4-benzyl-4-hydroxypiperidine-1-carbonyl)phenyl)-[1,2,4]triazolo[1,5-a]pyridin-2-yl)cyclopropanecarboxamide]",IC50,[1],101 to 500 nM
same,Microsomal Stability Rat (%),[2],** (** 26-50)
same,IC50,[3],< 100 nM
same,Microsomal Stability Human (%),[4],** (** 26-50)
same,"Papp A→B at 1 h, 10 µM",[5],4.1 ×10⁻⁶ cm/s
same,"efflux ratio at 1 h, 10 µM",[5],11.5
same,EC50,[6],101 to 500 nM
same,IC50,[7]; semi-quantitative score,< 100 nM
same,IC50,[8],101 to 500 nM
"CC(=O)Nc1nc2cccc(-c3ccc(OCc4ccccc4)cc3)n2n1 [Compound 163, N-(5-(4-(benzyloxy)phenyl)-[1,2,4]triazolo[1,5-a]pyridin-2-yl)acetamide]",IC50,[1],> 1000 nM
same,EC50,MMP13 in SW1353 cells,> 1000 nM
same,Microsomal Stability Rat (%),[2],** (** 26-50)
same,IC50,[3],< 100 nM
same,Microsomal Stability Human (%),[4],*** (*** 51-75)
same,"efflux ratio at 1 h, 10 µM",[5],0.85
same,EC50,[6],> 1000 nM
same,IC50,[7],< 100 nM
same,IC50,[8],101 to 500 nM
